This is an account of results in patent US10836763B2, “5 to 7 membered heterocyclic amides as JAK inhibitors” (priority 2018, dated 2020).

The target in assay [1] is JAK1 (Homo sapiens (Human), UniProt P23458). The assay is described as follows: Biochemical JAK kinase assay (LanthaScreen), JAK1. To be noted: ATP at Km 25 μM; pIC50 converted with Cheng-Prusoff. Here is the method: (§1) Assay 1: Biochemical JAK Kinase Assays
(§2) A panel of four LanthaScreen JAK biochemical assays (JAK1, 2, 3 and Tyk2) were carried in a common kinase reaction buffer (50 mM HEPES, pH 7.5, 0.01% Brij-35, 10 mM MgCl2, and 1 mM EGTA). Recombinant GST-tagged JAK enzymes and a GFP-tagged STAT1 peptide substrate were obtained from Life Technologies.
(§3) Serially diluted compounds were pre-incubated with each of the four JAK enzymes and the substrate in white 384-well microplates (Corning) at ambient temperature for 1 h. ATP was subsequently added to initiate the kinase reactions in 10 μL total volume, with 1% DMSO. […] Kinase reactions were allowed to proceed for 1 hour at ambient temperature before a 10 μL preparation of EDTA (10 mM final concentration) and Tb-anti-pSTAT1 (pTyr701) antibody (Life Technologies, 2 nM final concentration) in TR-FRET dilution buffer (Life Technologies) was added. The plates were allowed to incubate at ambient temperature for 1 h before being read on the EnVision reader (Perkin Elmer). Emission ratio signals (520 nm/495 nm) were recorded and utilized to calculate the percent inhibition values based on DMSO and background controls.
(§4) For dose-response analysis, percent inhibition data were plotted vs. compound concentrations, and IC50 values were determined from a 4-parameter robust fit model with the Prism software (GraphPad Software). Results were expressed as pIC50 (negative logarithm of IC50) and subsequently converted to pKi (negative logarithm of dissociation constant, Ki) using the Cheng-Prusoff equation.

Assay [2] deals with JAK2 (Homo sapiens (Human), UniProt O60674). Description: Biochemical JAK kinase assay (LanthaScreen), JAK2. To be noted: ATP at Km 3 μM; pIC50 converted with Cheng-Prusoff. Here is the method: as §1, §2, §3, §4
Assay [3] deals with IL-2 stimulated STAT5 phosphorylation in Tall-1 human T cell line. The assay is described as follows: Inhibition of IL-2 stimulated pSTAT5 in Tall-1 T cells. The settings on record: TALL-1, 0.5 h, IL-2 300 ng/mL, 30 min, pSTAT5 AlphaLisa, read-out: Tall-1 pIC50 (converted). The assay is classed as cell-based. Here is the method:
Assay 2: Inhibition of IL-2 Stimulated pSTAT5 in Tall-1 T Cells
The potency of test compounds for inhibition of interleukin-2 (IL-2) stimulated STAT5 phosphorylation was measured in the Tall-1 human T cell line (DSMZ) using AlphaLisa.
Phosphorylated STAT5 was measured via the AlphaLISA SureFire Ultra pSTAT5 (Tyr694/699) kit (PerkinElmer).
Compounds were serially diluted in DMSO and dispensed acoustically to empty wells. Assay media (phenol red-free DMEM (Life Technologies) supplemented with 10% FBS (ATCC)) was dispensed (4 μL/well) and plates shaken at 900 rpm for 10 mins. Cells were seeded at 45,000 cells/well in assay media (4 μL/well), and incubated at 37° C., 5% CO2 for 1 hour, followed by the addition of IL-2 (R&D Systems; final concentration 300 ng/mL) in pre-warmed assay media (4 μL) for 30 minutes. […] The lysate was shaken at 900 rpm for 10 minutes at room temperature (RT). Phosphorylated STAT5 was measured via the pSTAT5 AlphaLisa kit (PerkinElmer). Freshly prepared acceptor bead mixture was dispensed onto lysate (5 μL) under green filtered <100 lux light. Plates were shaken at 900 rpm for 2 mins, briefly spun down, and incubated for 2 hrs at RT in the dark. Donor beads were dispensed (5 μL) under green filtered <100 lux light. Plates were shaken at 900 rpm for 2 minutes, briefly spun down, and incubated overnight at RT in the dark. Luminescence was measured with excitation at 689 nm and emission at 570 nm using an EnVision plate reader (PerkinElmer) under green filtered <100 lux light.
To determine the inhibitory potency of test compounds in response to IL-2, the average emission intensity of beads bound to pSTAT5 was measured in a human T cell line. IC50 values were determined from analysis of the inhibition curves of signal intensity versus compound concentration. Data are expressed as pIC50 (negative decadic logarithm IC50) values (mean±standard deviation).

In assay [4] the test system is TSLP-evoked TARC release in human peripheral blood mononuclear cells. Description: Inhibition of TSLP-evoked TARC release in human peripheral blood mononuclear cells. Type of assay: cell-based. To be noted: PBMC from 3 to 5 donors, TSLP 10 ng/mL, 48 hours, TARC ELISA, read-out: pIC50 ± st. dev., inhibition of TSLP-evoked TARC release (converted). An excerpt: Assay 4: Inhibition of TSLP-Evoked TARC Release in Human Peripheral Blood Mononuclear Cells
Thymic stromal lymphopoietin (TSLP) and thymus and activation-regulated chemokine (TARC) are overexpressed in asthmatic airways, and correlate with disease severity. In the lungs, TSLP may be released by bronchial epithelial cells in response to allergens and viral infections. TSLP signals through an IL-7Rα/TSLPR heterodimer found in a broad range of tissues and cell types, including epithelial cells, endothelial cells, neutrophils, macrophages, and mast cells. The binding of TSLP to its receptor induces a conformational change that activates JAK1 and JAK2 to phosphorylate various transcription factors, including STAT3 and STAT5. In immune cells, this triggers a cascade of intracellular events that result in cell proliferation, anti-apoptosis, dendritic cell migration, and production of Th2 cytokines and chemokines. In peripheral blood mononuclear cells (PBMC), TSLP has a proinflammatory effect by activating myeloid dendritic cells to attract and stimulate T cells, a process mediated by the chemoattractant TARC.
The potencies of the test compounds were measured for inhibition of TARC release.
PBMC aliquots (previously isolated from whole blood and frozen in aliquots at −80° C.) from 3 to 5 donors were thawed at 37° C. and added dropwise to 40 mL pre-warmed, sterile-filtered, complete RPMI media in 50 mL Falcon tubes. Cells were pelleted and resuspended in complete media at 2.24×10^6 cells/mL. Cells were seeded at […] (190,000 cells) per well in a tissue culture treated 96-well flat bottom microplate. Cells were allowed to rest for 1 hour at 37° C. with 5% CO2.
Compounds were received as 10 mM stock solutions in DMSO. 3.7-fold serial dilutions were performed to generate 9 concentrations of test compound in DMSO at 300× the final assay test concentration. […] After the 1 hour rest period, 95 µL of 2× compound was added to each well of PBMC, for a final assay concentration range of 33.33 μM to […]. 95 μL of 0.2% DMSO in complete media was added to the untreated control wells. Cells were pre-treated with compound for 1 hour at 37° C. with 5% CO2 prior to stimulation.
Recombinant human TSLP protein was reconstituted at 10 μg/mL in sterile DPBS with 0.1% BSA and stored in aliquots at −20° C. Immediately prior to use, an aliquot was thawed and prepared at 20× the final assay concentration in complete media. 10 μL of 20×TSLP was added to each well of PBMC, for a final assay concentration of 10 ng/mL. 10 μL of complete media was added to the unstimulated control wells. Cells were stimulated in the presence of compound for 48 hours at 37° C. with 5% CO2.
Following stimulation, the cell culture supernatants were harvested and TARC levels were detected by enzyme-linked immunosorbent assay (ELISA), using Human CCL17/TARC Quantikine ELISA Kit (R&D Systems # DDN00) according to the manufacturer's instructions.
For dose response analysis, the log [test compound (M)] was plotted versus the percent response values for each donor, and IC50 values were determined using a nonlinear regression analysis with GraphPad Prism Software using the 4-parameter sigmoidal dose-response algorithm with variable slope. Data are expressed as mean pIC50 (negative decadic logarithm IC50) values calculated from pIC50 values of individual donors and rounded to one decimal place.

JAK1, sequence (P23458 whole entry): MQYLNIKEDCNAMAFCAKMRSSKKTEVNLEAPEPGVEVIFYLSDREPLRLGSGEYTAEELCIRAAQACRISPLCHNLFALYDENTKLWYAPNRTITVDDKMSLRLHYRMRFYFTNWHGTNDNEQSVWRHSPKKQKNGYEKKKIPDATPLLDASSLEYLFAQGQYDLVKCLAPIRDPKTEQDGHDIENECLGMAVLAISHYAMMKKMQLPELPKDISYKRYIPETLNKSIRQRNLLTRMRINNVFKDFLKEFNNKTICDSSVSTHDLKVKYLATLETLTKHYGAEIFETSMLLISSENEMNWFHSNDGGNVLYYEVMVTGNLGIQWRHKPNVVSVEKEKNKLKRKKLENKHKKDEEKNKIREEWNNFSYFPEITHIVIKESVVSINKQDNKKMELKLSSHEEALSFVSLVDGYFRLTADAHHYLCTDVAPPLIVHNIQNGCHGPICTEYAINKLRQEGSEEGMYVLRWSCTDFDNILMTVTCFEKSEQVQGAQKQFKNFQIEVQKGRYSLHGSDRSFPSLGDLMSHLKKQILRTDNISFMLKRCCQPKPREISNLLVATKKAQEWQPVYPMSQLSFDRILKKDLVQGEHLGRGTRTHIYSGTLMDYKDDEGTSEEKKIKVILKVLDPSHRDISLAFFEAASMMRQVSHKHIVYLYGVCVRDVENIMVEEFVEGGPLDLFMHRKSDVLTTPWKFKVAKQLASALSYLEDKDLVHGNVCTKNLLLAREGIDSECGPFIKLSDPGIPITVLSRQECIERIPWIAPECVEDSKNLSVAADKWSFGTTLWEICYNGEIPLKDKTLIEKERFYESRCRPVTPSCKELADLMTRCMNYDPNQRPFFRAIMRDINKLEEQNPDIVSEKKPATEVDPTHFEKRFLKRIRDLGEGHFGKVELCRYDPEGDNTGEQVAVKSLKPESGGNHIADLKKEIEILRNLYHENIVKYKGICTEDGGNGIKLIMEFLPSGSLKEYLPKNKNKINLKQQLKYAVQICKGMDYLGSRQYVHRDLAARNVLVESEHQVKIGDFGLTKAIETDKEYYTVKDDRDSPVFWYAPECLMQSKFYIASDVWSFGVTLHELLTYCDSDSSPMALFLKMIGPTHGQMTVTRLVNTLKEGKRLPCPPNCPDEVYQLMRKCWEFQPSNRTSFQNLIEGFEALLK
JAK2, sequence (O60674 whole entry): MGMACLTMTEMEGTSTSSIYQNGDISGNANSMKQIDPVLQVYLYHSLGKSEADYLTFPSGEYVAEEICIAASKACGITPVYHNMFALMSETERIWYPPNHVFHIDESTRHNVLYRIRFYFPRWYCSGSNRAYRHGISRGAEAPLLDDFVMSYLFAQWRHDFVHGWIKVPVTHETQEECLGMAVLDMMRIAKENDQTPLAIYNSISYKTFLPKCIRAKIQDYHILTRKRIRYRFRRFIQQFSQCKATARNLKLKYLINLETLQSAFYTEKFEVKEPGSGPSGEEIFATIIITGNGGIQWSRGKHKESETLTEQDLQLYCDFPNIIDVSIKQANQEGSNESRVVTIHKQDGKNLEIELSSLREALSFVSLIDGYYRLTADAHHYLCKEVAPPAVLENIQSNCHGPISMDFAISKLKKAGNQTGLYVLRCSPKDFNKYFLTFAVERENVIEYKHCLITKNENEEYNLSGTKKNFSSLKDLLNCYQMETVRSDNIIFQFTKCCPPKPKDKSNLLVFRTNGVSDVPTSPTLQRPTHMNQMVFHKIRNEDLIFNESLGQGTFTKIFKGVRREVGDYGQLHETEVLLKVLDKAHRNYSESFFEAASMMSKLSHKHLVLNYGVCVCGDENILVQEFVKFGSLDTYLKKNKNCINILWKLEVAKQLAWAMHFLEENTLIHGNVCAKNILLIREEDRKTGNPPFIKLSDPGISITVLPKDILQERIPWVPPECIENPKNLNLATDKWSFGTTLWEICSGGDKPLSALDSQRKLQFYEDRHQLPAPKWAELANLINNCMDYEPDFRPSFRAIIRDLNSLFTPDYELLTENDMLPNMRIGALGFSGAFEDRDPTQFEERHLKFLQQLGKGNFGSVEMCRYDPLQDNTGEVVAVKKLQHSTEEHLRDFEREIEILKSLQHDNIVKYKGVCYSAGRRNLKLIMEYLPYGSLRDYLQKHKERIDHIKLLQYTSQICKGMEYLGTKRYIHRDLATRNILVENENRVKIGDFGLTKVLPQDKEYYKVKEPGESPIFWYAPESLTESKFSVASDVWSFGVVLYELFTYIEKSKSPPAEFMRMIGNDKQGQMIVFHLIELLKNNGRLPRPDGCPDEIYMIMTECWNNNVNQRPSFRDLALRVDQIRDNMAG

Turning to `CCc1cc(O)c(F)cc1-c1ccc2c(-c3nc4c([nH]3)CN(C)[C@H](C(=O)N3CCN(CCO)C[C@H]3C)C4)n[nH]c2c1` [Compound C-5, ((S)-2-(6-(2-ethyl-5-fluoro-4-hydroxyphenyl)-1H-indazol-3-yl)-5-methyl-4,5,6,7-tetrahydro-3H-imidazo[4,5-c]pyridin-6-yl)((R)-4-(2-hydroxyethyl)-2-methyl-piperazin-1-yl)methanone, reference compound], in assay [1], the “JAK1 pKi” value was determined as 10.1. Besides, the “JAK2 pKi” value in assay [2] was 10.7. In addition, the IC50 was 2.51 nM in assay [3] and 50.1 nM in assay [4].
